Measured values published in patent US8546611B2 (priority 2008, dated 2013).
Read-outs that look alike come from different tables or passages of the source.

Columns and labels:
[1] = system: erythroid cells isolated from the bone marrow of laboratory mice males; conditions: feed with succinic acid 20 mg/kg body wt., not irradiated, norm 5.0±1.0
Protocol: The test for genotoxicity was performed on young laboratory mice males (18-20 g; 6 animals in each group). […] The control animals were given water.

[2] = system: Wistar rat males; conditions: 1.5 ml of 1% succinic acid perorally 10 min prior; for Eosinophils, 6 h after / Lymphocytes, 6 h after / Number of leukocytes in 1 μl of blood, 6 h after / Segmentated cells, 6 h after: 6 h after immobilization; for Eosinophils, before / Lymphocytes, before / Number of leukocytes in 1 μl of blood, before / Segmentated cells, before: at the moment of immobilization
Protocol: Examples, illustrating the method invented, are presented below. […] SA is tested on rats endured an immobilization stress; the parameter tested is lymphocytic composition of blood, which is determined before and after stress in a blood smear taken from the caudal vein. […] A detailed description of the testing technique is given in Example 13.
The animals were fixed while lying flat on their back, with their legs secured. […] Blood was taken from the caudal vein: 10 μl for counting blood corpuscles and 20 μl for preparing a smear with its subsequent staining by Romanovsky-Giemsa).
First group: 10 min prior immobilization, the animals were injected (perorally, with the help of a stomach pump) with 1.5 ml of 1% starch solution. […] Blood was taken from the caudal vein at the moment of immobilization and 6 hours later, and stained blood smears were prepared to calculate the leukogram.

[3] = system: patients with cardiac insufficiency; conditions: for patients of functional class I, day 30 / patients of functional class II, day 30 / patients of functional class III, day 30 / patients of functional class IV, day 30 / patients of functional class I, day 60 / patients of functional class II, day 60 / patients of functional class III, day 60 / patients of functional class IV, day 60 / patients of functional class I, day 90 / patients of functional class II, day 90 / patients of functional class III, day 90 / patients of functional class IV, day 90: 100 mg twice per day with standard therapy; for patients of functional class I, day 30 / patients of functional class II, day 30 / patients of functional class III, day 30 / patients of functional class IV, day 30: after 30 days; for patients of functional class I, day 60 / patients of functional class II, day 60 / patients of functional class III, day 60 / patients of functional class IV, day 60: after 60 days; for patients of functional class I, day 90 / patients of functional class II, day 90 / patients of functional class III, day 90 / patients of functional class IV, day 90: after 90 days; for patients of functional class I, day 0 / patients of functional class II, day 0 / patients of functional class III, day 0 / patients of functional class IV, day 0: 100 mg twice per day, 3 months, with standard therapy, before treatment
Protocol: The test for cardiotonic activity of product samples was performed by measuring the dynamics of alteration of the functional class of cardiac failure. The functional class can be determined quite accurately by analyzing the everyday life activities according to a specific activity scale. The authors of this technique suppose that the criteria developed by NYHA (New York Heart Association) cannot provide accurate determination of functional class, since widely used terms, such as “everyday physical activity”, “sub-everyday activity” are not specific. On the basis of multiple tests, in which patients exercised on a treadmill, the authors calculated a scale of metabolic expenses for each kind of life activity (see Goldman L., Hashimoto B., Cook F. et al., Comparative reproducibility and validity of systems for assessing cardiovascular functional class: advantages of a new specific activity scale (1981) Circulation 64 (6):1227-34). This inquiry is designed to be used by medical personnel, interviewing a patient. After calculating the sum of possible energy expenses, the functional class of the patient is determined according to the summary criteria of the specific activity scale (Table 6).
In the tests, the patient groups were formed so that the people of the same functional class were equally distributed among different groups. Severe patients (of IV functional class; those having oncological diseases or suffered myocardial infarction/stroke to the brain 60 days or less before) were not admitted to the tests. The distribution of patients among groups was governed by a random number generator. The tests were carried out by the following protocol. Each patient took 100 mg of the preparation twice per day (in the morning and after lunch) during 3 months—against the background of a standard therapy administered by a physician. […] All the samples and placebo were encoded before sending into the clinic, so none of those involved into the tests (patients, physicians, medical personnel and the manager of tests) was aware of the nature of samples.
The functional class of patients was determined several times: at the beginning of tests (before the formation of test groups) and after 30, 60 and 90 days of treatment with the test samples. The estimation was performed on the basis of the activity scale (Table 7).

[4] = system: white rat females; conditions: in vivo; for Total died: 14 days
[5] = system: erythroid cells isolated from the bone marrow of gamma-irradiated laboratory mice males; test: Radioprotective properties (micronucleus test after gamma irradiation); conditions: mice irradiated with gamma rays 1.3 Gy, then fed 48 h succinic acid 20 mg/kg body wt.; critical value 16±2

| SMILES | Number of micronuclei per 2000 cells (genotoxicity) [1] | patients of functional class I, day 30 [3] | patients of functional class II, day 30 [3] | patients of functional class III, day 30 [3] | patients of functional class IV, day 30 [3] | patients of functional class I, day 60 [3] | patients of functional class II, day 60 [3] | patients of functional class III, day 60 [3] | patients of functional class IV, day 60 [3] | patients of functional class I, day 90 [3] | patients of functional class II, day 90 [3] | patients of functional class III, day 90 [3] | patients of functional class IV, day 90 [3] | patients of functional class I, day 0 [3] | patients of functional class II, day 0 [3] | patients of functional class III, day 0 [3] | patients of functional class IV, day 0 [3] | died, 14 day ([4]; female, 5000 mg/kg) | Total died ([4]; female, 5000 mg/kg) | Number of micronuclei per 2000 cells (radioprotective properties) [5] | further results |
| --- | --- | --- | --- | --- | --- | --- | --- | --- | --- | --- | --- | --- | --- | --- | --- | --- | --- | --- | --- | --- | --- |
| O=C(O)CCC(=O)O [Example 5, succinic acid] | 5.0 ± 1.0 | 8 | 7 | 5 | 0 | 9 | 7 | 4 | 0 | 14 | 5 | 1 | 0 | 8 | 7 | 5 | 0 | 1 | 3 | 12.0 ± 1.2 | Eosinophils, 6 h after ([2]; listed as Ex. 5): 1.5 ± 8%; Lymphocytes, 6 h after ([2]; listed as Ex. 5): 75 ± 4%; Number of leukocytes in 1 μl of blood, 6 h after ([2]; listed as Ex. 5): 7200; Segmentated cells, 6 h after ([2]; listed as Ex. 5): 24 ± 3%; Eosinophils, before ([2]; listed as Ex. 5): 2 ± 6%; Lymphocytes, before ([2]; listed as Ex. 5): 76 ± 5%; Number of leukocytes in 1 μl of blood, before ([2]; listed as Ex. 5): 6000; Segmentated cells, before ([2]; listed as Ex. 5): 22 ± 4%; died, 13 day ([4]; female, 5000 mg/kg): 2 |
| O=C(O)CCC(=O)O [Example 6, succinic acid] | 4.5 ± 1.0 | 10 | 6 | 4 | 0 | 11 | 6 | 3 | 0 | 14 | 5 | 1 | 0 | 8 | 7 | 5 | 0 | 2 | 3 | 12.5 ± 1.0 | Eosinophils, 6 h after ([2]; listed as Ex. 6): 1.0 ± 2%; Lymphocytes, 6 h after ([2]; listed as Ex. 6): 74 ± 6%; Number of leukocytes in 1 μl of blood, 6 h after ([2]; listed as Ex. 6): 7000; Segmentated cells, 6 h after ([2]; listed as Ex. 6): 25 ± 3%; Eosinophils, before ([2]; listed as Ex. 6): 2 ± 2%; Lymphocytes, before ([2]; listed as Ex. 6): 77 ± 5%; Number of leukocytes in 1 μl of blood, before ([2]; listed as Ex. 6): 5800; Segmentated cells, before ([2]; listed as Ex. 6): 21 ± 3%; died, 11 day ([4]; female, 5000 mg/kg, 11 day): 1 |
| O=C(O)CCC(=O)O [Example 9, succinic acid] | 5.0 ± 1.0 | 10 | 6 | 4 | 0 | 11 | 6 | 3 | 0 | 14 | 5 | 1 | 0 | 8 | 7 | 5 | 0 | 1 | 3 | 11.0 ± 1.6 | Eosinophils, 6 h after ([2]; listed as Ex. 9): 1.5 ± 2%; Lymphocytes, 6 h after ([2]; listed as Ex. 9): 74 ± 6%; Number of leukocytes in 1 μl of blood, 6 h after ([2]; listed as Ex. 9): 7000; Segmentated cells, 6 h after ([2]; listed as Ex. 9): 25 ± 6%; Eosinophils, before ([2]; listed as Ex. 9): 2 ± 4%; Lymphocytes, before ([2]; listed as Ex. 9): 76 ± 6%; Number of leukocytes in 1 μl of blood, before ([2]; listed as Ex. 9): 5800; Segmentated cells, before ([2]; listed as Ex. 9): 22 ± 3%; died, 13 day ([4]; female, 5000 mg/kg): 2 |
| O=C(O)CCC(=O)O [Example 1, succinic acid, reference compound] | 5.5 ± 0.8 | 8 | 7 | 5 | 0 | 9 | 6 | 5 | 0 | 9 | 7 | 4 | 0 | 8 | 7 | 5 | 0 |  | 0 | 25.5 ± 1.0 | Eosinophils, 6 h after ([2]; listed as Ex. 1): 0%; Lymphocytes, 6 h after ([2]; listed as Ex. 1): 69 ± 5%; Number of leukocytes in 1 μl of blood, 6 h after ([2]; listed as Ex. 1): 7900; Segmentated cells, 6 h after ([2]; listed as Ex. 1): 29 ± 3%; Eosinophils, before ([2]; listed as Ex. 1): 2 ± 4%; Lymphocytes, before ([2]; listed as Ex. 1): 78 ± 4%; Number of leukocytes in 1 μl of blood, before ([2]; listed as Ex. 1): 5900; Segmentated cells, before ([2]; listed as Ex. 1): 21 ± 2%; animals died, extra test with doubled dose ([4]; 10000 mg/kg): Not a single animal died |
| O=C(O)CCC(=O)O [Example 8, succinic acid] | 5.0 ± 0.8 | 10 | 6 | 4 | 0 | 11 | 6 | 3 | 0 | 14 | 5 | 1 | 0 | 8 | 7 | 5 | 0 | 1 | 3 | 12.0 ± 1.5 | Eosinophils, 6 h after ([2]; listed as Ex. 8): 1.5 ± 3%; Lymphocytes, 6 h after ([2]; listed as Ex. 8): 75 ± 4%; Number of leukocytes in 1 μl of blood, 6 h after ([2]; listed as Ex. 8): 7000; Segmentated cells, 6 h after ([2]; listed as Ex. 8): 24 ± 2%; Eosinophils, before ([2]; listed as Ex. 8): 2 ± 6%; Lymphocytes, before ([2]; listed as Ex. 8): 77 ± 5%; Number of leukocytes in 1 μl of blood, before ([2]; listed as Ex. 8): 5900; Segmentated cells, before ([2]; listed as Ex. 8): 21 ± 4%; died, 12 day ([4]; female, 5000 mg/kg, 12 day): 1; died, 13 day ([4]; female, 5000 mg/kg): 1 |
